# Reference: publication PMC10178848, “Modulating fast skeletal muscle contraction protects skeletal muscle in animal models of Duchenne muscular dystrophy” (The Journal of Clinical Investigation, 2023)
# System: mdx mouse EDL muscle
# Experiment: Phosphoprotein array analysis (Cell Signaling Phospho Antibody Array)
# Description: mdx mouse EDL muscle was prepared for ex vivo analysis as described (n = 5). Muscles were incubated for 1 hour with DMSO or EDG-5506 (5 μM) and then flash frozen in liquid nitrogen. Tissue preparation and analysis were performed as recommended by the manufacturer (Cell Signaling Phospho Antibody Array, Full Moon Biosystems).
smiles,measurement,setting,value
O=c1ccc(-c2cnc(OCC(F)(F)F)nc2)nn1Cc1cncc(F)c1 [EDG-5506],Data Normalized to Median Signal: BAX (Phospho-Thr167),,0.77
same,Fold Change T/C: 4E-BP1 (Ab-45),"5 μM, 1 hour",0.88
same,Fold Change T/C: 4E-BP1 (Phospho-Thr45),"5 μM, 1 hour",0.74
same,Fold Change T/C: 14-3-3 theta/tau (Phospho-Ser232),"5 μM, 1 hour",1.01
same,Fold Change T/C: 14-3-3 zeta/delta (Ab-232),"5 μM, 1 hour",1.03
same,Fold Change T/C: ACC1 (Ab-80),"5 μM, 1 hour",0.96
same,Fold Change T/C: ACC1 (Phospho-Ser80),"5 μM, 1 hour",0.92
same,Fold Change T/C: AKT,"5 μM, 1 hour",0.96
same,Fold Change T/C: AKT1 (Ab-308),"5 μM, 1 hour",1.11
same,Fold Change T/C: AKT1S1 (Ab-246),"5 μM, 1 hour",1.04
same,Fold Change T/C: AMPKbeta1 (Ab-182),"5 μM, 1 hour",0.89
same,Fold Change T/C: AMPKbeta1 (Phospho-Ser182),"5 μM, 1 hour",0.80
same,Fold Change T/C: ASK1 (Ab-966),"5 μM, 1 hour",0.99
same,Fold Change T/C: ATF2 (Ab-62/44),"5 μM, 1 hour",2.53
same,Fold Change T/C: Actin Pan(a/b/g) (Ab-55/53),"5 μM, 1 hour",0.97
same,Fold Change T/C: B-RAF (Ab-598),"5 μM, 1 hour",1.09
same,Fold Change T/C: B-RAF (Phospho-Ser446),"5 μM, 1 hour",1.05
same,Fold Change T/C: BAX (Phospho-Thr167),"5 μM, 1 hour",0.78
same,Fold Change T/C: BCL-XL (Ab-47),"5 μM, 1 hour",1.77
same,Fold Change T/C: BCL-XL (Phospho-Ser62),"5 μM, 1 hour",1.02
same,Fold Change T/C: BID (Ab-78),"5 μM, 1 hour",1.23
same,Fold Change T/C: BLNK (Ab-96),"5 μM, 1 hour",0.97
same,Fold Change T/C: BLNK (Phospho-Tyr96),"5 μM, 1 hour",0.51
same,Fold Change T/C: BRCA1 (Ab-1524),"5 μM, 1 hour",1.39
same,Fold Change T/C: Bax,"5 μM, 1 hour",0.89
same,Fold Change T/C: Beclin-1,"5 μM, 1 hour",1.49
same,Fold Change T/C: Beta actin,"5 μM, 1 hour",0.82
same,Fold Change T/C: CBL (Phospho-Tyr700),"5 μM, 1 hour",0.88
same,Fold Change T/C: CDC25C (Ab-216),"5 μM, 1 hour",1.97
same,Fold Change T/C: CDK1/CDC2 (Phospho-Tyr15),"5 μM, 1 hour",0.83
same,Fold Change T/C: CREB (Ab-133),"5 μM, 1 hour",0.71
same,Fold Change T/C: CREB (Phospho-Ser133),"5 μM, 1 hour",0.74
same,Fold Change T/C: CaMK2-beta/gamma/delta (Ab-287),"5 μM, 1 hour",1.42
same,Fold Change T/C: CaMK2-beta/gamma/delta (Phospho-Thr287),"5 μM, 1 hour",0.92
same,Fold Change T/C: CaMK2A (Phospho-Thr286),"5 μM, 1 hour",0.86
same,Fold Change T/C: Calmodulin (Ab-79/81),"5 μM, 1 hour",1.02
same,Fold Change T/C: Caspase 8 (Phospho-Ser347),"5 μM, 1 hour",1.08
same,Fold Change T/C: Caspase 9 (Ab-196),"5 μM, 1 hour",2.31
same,Fold Change T/C: Caspase 9 (Phospho-Ser196),"5 μM, 1 hour",0.94
same,Fold Change T/C: Catalase (Ab-385),"5 μM, 1 hour",1.34
same,Fold Change T/C: Catenin beta (Ab-37),"5 μM, 1 hour",1.21
same,Fold Change T/C: Catenin beta (Phospho-Thr41/Ser45),"5 μM, 1 hour",0.83
same,Fold Change T/C: Chk2 (Ab-68),"5 μM, 1 hour",1.17
same,Fold Change T/C: Chk2 (Phospho-Thr68),"5 μM, 1 hour",0.51
same,Fold Change T/C: CrkII (Ab-221),"5 μM, 1 hour",1.59
same,Fold Change T/C: Cyclin D1 (Ab-286),"5 μM, 1 hour",1.10
same,Fold Change T/C: Cyclin D1 (Phospho-Thr286),"5 μM, 1 hour",1.18
same,Fold Change T/C: Cyclin E1 (Ab-77),"5 μM, 1 hour",1.24
same,Fold Change T/C: Cyclin E1 (Phospho-Thr77),"5 μM, 1 hour",1.02
same,Fold Change T/C: DARPP-32 (Ab-34),"5 μM, 1 hour",1.01
same,Fold Change T/C: DARPP-32 (Phospho-Thr34),"5 μM, 1 hour",0.91
same,Fold Change T/C: EEF2 (Ab-56),"5 μM, 1 hour",0.84
same,Fold Change T/C: EEF2 (Phospho-Thr56),"5 μM, 1 hour",1.12
same,Fold Change T/C: EGFR (Ab-1172),"5 μM, 1 hour",0.86
same,Fold Change T/C: Elk1 (Ab-389),"5 μM, 1 hour",1.22
same,Fold Change T/C: FADD (Phospho-Ser194),"5 μM, 1 hour",1.53
same,Fold Change T/C: FAK (Ab-910),"5 μM, 1 hour",1.76
same,Fold Change T/C: FAK (Phospho-Ser910),"5 μM, 1 hour",1.09
same,Fold Change T/C: FGFR1 (Phospho-Tyr654),"5 μM, 1 hour",1.35
same,Fold Change T/C: FKHRL1/FOXO3A (Ab-253),"5 μM, 1 hour",1.74
same,Fold Change T/C: FOXO1/3/4-pan (Ab-24/32),"5 μM, 1 hour",1.40
same,Fold Change T/C: GAPDH,"5 μM, 1 hour",0.75
same,Fold Change T/C: GRK2 (Ab-29),"5 μM, 1 hour",1.92
same,Fold Change T/C: GRK2 (Phospho-Ser29),"5 μM, 1 hour",1.26
same,Fold Change T/C: GSK3 alpha/beta (Phospho-Tyr216/279),"5 μM, 1 hour",0.97
same,Fold Change T/C: GSK3 beta,"5 μM, 1 hour",1.12
same,Fold Change T/C: Gab1 (Ab-627),"5 μM, 1 hour",1.06
same,Fold Change T/C: Gab2 (Phospho-Tyr643),"5 μM, 1 hour",1.59
same,Fold Change T/C: HDAC1 (Ab-421),"5 μM, 1 hour",0.79
same,Fold Change T/C: HDAC1 (Phospho-Ser421),"5 μM, 1 hour",1.25
same,Fold Change T/C: HDAC2 (Ab-394),"5 μM, 1 hour",1.03
same,Fold Change T/C: HDAC2 (Phospho-Ser394),"5 μM, 1 hour",0.90
same,Fold Change T/C: HER2 (Ab-1221/1222),"5 μM, 1 hour",1.19
same,Fold Change T/C: HSP27 (Ab-82),"5 μM, 1 hour",0.82
same,Fold Change T/C: HSP90B (Phospho-Ser226),"5 μM, 1 hour",1.00
same,Fold Change T/C: IKK alpha/beta (Ab-180/181),"5 μM, 1 hour",0.91
same,Fold Change T/C: IKK-beta (Ab-199),"5 μM, 1 hour",1.62
same,Fold Change T/C: IKK-beta (Phospho-Tyr188),"5 μM, 1 hour",1.01
same,Fold Change T/C: IKK-beta (Phospho-Tyr199),"5 μM, 1 hour",0.84
same,Fold Change T/C: IKK-gamma (Ab-31),"5 μM, 1 hour",0.96
same,Fold Change T/C: IKK-gamma (Phospho-Ser31),"5 μM, 1 hour",0.98
same,Fold Change T/C: IL-4R/CD124 (Ab-497),"5 μM, 1 hour",0.93
same,Fold Change T/C: IL-4R/CD124 (Phospho-Tyr497),"5 μM, 1 hour",0.93
same,Fold Change T/C: IL-10R-alpha (Ab-496),"5 μM, 1 hour",1.30
same,Fold Change T/C: IL-10R-alpha (Phospho-Tyr496),"5 μM, 1 hour",0.85
same,Fold Change T/C: IRS-1 (Ab-312),"5 μM, 1 hour",1.03
same,Fold Change T/C: IkB-alpha (Phospho-Ser32/36),"5 μM, 1 hour",1.11
same,Fold Change T/C: IkB-epsilon (Ab-22),"5 μM, 1 hour",1.30
same,Fold Change T/C: Integrin beta-3 (Ab-773),"5 μM, 1 hour",1.08
same,Fold Change T/C: Integrin beta-3 (Phospho-Tyr773),"5 μM, 1 hour",0.93
same,Fold Change T/C: Interferon-alpha/beta receptor alpha chain (Ab-466),"5 μM, 1 hour",0.90
same,Fold Change T/C: JAK2 (Ab-1007),"5 μM, 1 hour",1.36
same,Fold Change T/C: JunB (Phospho-Ser259),"5 μM, 1 hour",0.79
same,Fold Change T/C: LCK (Ab-393),"5 μM, 1 hour",1.67
same,Fold Change T/C: LKB1 (Ab-334),"5 μM, 1 hour",0.94
same,Fold Change T/C: LYN (Ab-507),"5 μM, 1 hour",0.58
same,Fold Change T/C: LYN (Phospho-Tyr507),"5 μM, 1 hour",1.06
same,Fold Change T/C: Lamin A/C (Ab-392),"5 μM, 1 hour",1.84
same,Fold Change T/C: Lamin A/C (Phospho-Ser392),"5 μM, 1 hour",0.80
same,Fold Change T/C: MDM2 (Ab-166),"5 μM, 1 hour",1.49
same,Fold Change T/C: MEK1 (Ab-291),"5 μM, 1 hour",0.77
same,Fold Change T/C: MEK1 (Phospho-Ser217),"5 μM, 1 hour",0.62
same,Fold Change T/C: MITF (Ab-73),"5 μM, 1 hour",1.38
same,Fold Change T/C: MKK4/SEK1 (Ab-80),"5 μM, 1 hour",1.10
same,Fold Change T/C: MSK1 (Ab-360),"5 μM, 1 hour",0.69
same,Fold Change T/C: Myc (Ab-58),"5 μM, 1 hour",1.09
same,Fold Change T/C: NFkB-p65 (Ab-529),"5 μM, 1 hour",1.14
same,Fold Change T/C: NFkB-p65 (Phospho-Ser311),"5 μM, 1 hour",1.00
same,Fold Change T/C: NFkB-p65 (Phospho-Ser529),"5 μM, 1 hour",0.82
same,Fold Change T/C: NFkB-p100/p52 (Ab-865),"5 μM, 1 hour",0.76
same,Fold Change T/C: NFkB-p100/p52 (Phospho-Ser865),"5 μM, 1 hour",0.88
same,Fold Change T/C: NFkB-p105/p50 (Ab-927),"5 μM, 1 hour",0.85
same,Fold Change T/C: P38 MAPK (Ab-182),"5 μM, 1 hour",1.70
same,Fold Change T/C: P38 MAPK (Phospho-Thr180/Tyr182),"5 μM, 1 hour",0.35
same,Fold Change T/C: P70S6K (Ab-229),"5 μM, 1 hour",1.33
same,Fold Change T/C: P70S6K (Phospho-Ser424),"5 μM, 1 hour",1.00
same,Fold Change T/C: P90RSK (Ab-359/363),"5 μM, 1 hour",1.06
same,Fold Change T/C: P90RSK (Phospho-Thr359/Ser363),"5 μM, 1 hour",0.95
same,Fold Change T/C: PDK1 (Ab-241),"5 μM, 1 hour",1.24
same,Fold Change T/C: PDK1 (Phospho-Ser241),"5 μM, 1 hour",1.14
same,Fold Change T/C: PLCG1 (Phospho-Tyr783),"5 μM, 1 hour",2.25
same,Fold Change T/C: PLK1 (Ab-210),"5 μM, 1 hour",1.49
same,Fold Change T/C: PLK1 (Phospho-Thr210),"5 μM, 1 hour",0.60
same,Fold Change T/C: PP1 alpha (Ab-320),"5 μM, 1 hour",1.15
same,Fold Change T/C: PP2A-alpha (Ab-307),"5 μM, 1 hour",1.23
same,Fold Change T/C: PP2A-alpha (Phospho-Tyr307),"5 μM, 1 hour",0.93
